Test results reported in patent US11976046B1, “4-(4,5-bis(4-bromophenyl)-2-(4-methoxyphenyl)-1H-imidazol-1-yl)benzoic acid as an antimicrobial compound” (KING FAISAL UNIVERSITY, priority 2023, dated 2024).

Tested on: different microbes
Test: agar plate disc-diffusion antimicrobial testing
Format: cell-based
Settings: against different microbes; screened against gram-positive Bacillus cereus and Staphylococcus aureus, gram-negative Pseudomonas aeruginosa and Escherichia coli, fungi Aspergillus flavus and Chrysosporium keratinophilum
Description: The agar plate disc-diffusion method was applied. Sterilized filter papers (6 mm in diameter) were wetted with 10 μL of a solution of 4-(4,5-bis(4-bromophenyl)-2-(4-methoxyphenyl)-1H-imidazol-1-yl)benzoic acid (V) to be tested, containing 10 mg/mL in DMSO, and the discs were allowed to air dry. The discs were then placed onto the surface of agar plates (nutrient agar for bacteria and Sabouraud's dextrose agar for fungi) seeded with the test organism. Each plate contained 15 mL of the agar medium, previously seeded with 0.2 mL of the broth culture of each organism pregrown for 18 hours. The plates were incubated at 37° C. for 48 hours, and 72 hours for fungi. The inhibition zones was measured in mm. Discs impregnated with DMSO were used as a control, and its inhibition zone was subtracted from the tested compound actual inhibition zone.

For COc1ccc(-c2nc(-c3ccc(Br)cc3)c(-c3ccc(Br)cc3)n2-c2ccc(C(=O)O)cc2)cc1 [V, 4-(4,5-bis(4-bromophenyl)-2-(4-methoxyphenyl)-1H-imidazol-1-yl)benzoic acid], the antimicrobial activities was “excellent antimicrobial activities”.
